Experimental data from ChEMBL document CHEMBL1147020, “Low molecular weight indole fragments as IMPDH inhibitors” (Bioorg Med Chem Lett, 2006).
Active and inactive are the calls of the source. No cut-off for these calls is given here.

Each molecule was assayed against T1, Inosine-5'-monophosphate dehydrogenase 2 (Homo sapiens, UniProt P12268) (assay: Inhibition of IMPDH2).

| SMILES | IC50 [µM] |
| --- | --- |
| Brc1ccc2c(-c3ccncc3)c[nH]c2c1 | 0.408 |
| Cn1cc(C=O)c2ccccc21 | 6.84 |
| Nc1ccc2c(-c3cncs3)c[nH]c2c1 | 27.9 |
| O=Cc1c[nH]c2ccccc12 [3-FORMYLINDOLE] | 22.7 |
| Cc1[nH]c2ccccc2c1-c1ccncc1 | 0.343 |
| N#Cc1c[nH]c2ccccc12 | 20.9 |
| Cc1[nH]c2cc(N)ccc2c1-c1ccncc1 | 0.419 |

More lines, now with the values ahead:

| IC50 [µM] | SMILES |
| --- | --- |
| 1.15 | c1ccc2c(-c3ccncc3)c[nH]c2c1 |
| 7.66 | Cn1cc(C#N)c2ccccc21 |
| 0.524 | Nc1cccc2c(-c3ccncc3)c[nH]c12 |
| 8.2 | COc1cc(N)ccc1-c1cnco1 |
| 0.637 | Nc1ccc2c(-c3ccncc3)c[nH]c2c1 |
| 5.84 | c1ccc2c(-c3ccoc3)c[nH]c2c1 |
| 2.32 | Nc1ccc2c(-c3ccsc3)c[nH]c2c1 |
| 6.21 | Cn1cc(-c2ccoc2)c2ccccc21 |

The molecules below were run against T1, Inosine-5'-monophosphate dehydrogenase 2 (assay: Inhibition of IMPDH2 at 50 uM).

| SMILES | inhibition |
| --- | --- |
| Cc1cc(-c2c[nH]c3cc(N)ccc23)ccn1 | inactive |
| NC(=O)c1c[nH]c2ccccc12 | inactive |
| Cn1cc(C(N)=O)c2ccccc21 | 50% |
| c1cncc(-c2c[nH]c3ccccc23)c1 | inactive |
| Cn1cc(-c2ccncc2)c2ccc(Br)cc21 | 62% |
